Test results from a melting point compilation (Tetko et al.; mined from patent text by program, amines drawn as free bases though some values may be those of a salt).

SMILES | melting point
Cc1ccccc1S(=O)(=O)NC1CCc2sc(-c3ccc(=O)[nH]n3)cc2C1 (configuration not stated) | 242 to 247 °C
CCOC(=O)C=C1CN(C)C(=O)c2ccccc2N1 | 154 to 155 °C
CC(=O)OCCc1c(C2=CCC(c3ccccc3)(N(C)C)CC2)[nH]c2ccccc12 (configuration not stated) | 146 to 148 °C
FC(F)(F)c1cc(-c2ccc(Cl)cc2)nc2c(-c3cccnc3)cnn12 | 188 °C
O=C1CCc2cc(Cl)ccc2C1 | 121 to 122 °C
CC(=O)N1c2c(ccc3c2nc(C)n3C)[C@@H]2O[C@@H]2[C@H]1c1ccccc1 | 200 to 205 °C
CS(=O)(=O)c1ccc(-c2cnn(CC(F)(F)F)c(=O)c2NC2CCC2)cc1 | 169 to 172 °C
CCCc1nc2c(N)nc3cc(-c4ccccc4C(N)=O)ccc3c2s1 | 274 to 276 °C
Cc1cc(C)cc(-c2nc(NC(=O)c3ccncc3)sc2-c2ccncc2)c1 | 302 to 304 °C
NS(=O)(=O)c1cscn1 | 142 to 146 °C
CC(C)=C1Cc2ccc3nc(C)oc3c2C1=O | 156 to 159 °C
CC(=O)C1CC2=C(CO1)C(=O)c1ccccc1C2=O (configuration not stated) | 135 to 136 °C
O=C1CC(Sc2nnc(S)s2)C(=O)O1 (configuration not stated) | 194 to 196 °C
CCCCCCCCNC(=O)N=C(NC(=O)NCC)OC | 88 to 90 °C
Cn1ccnc1Sc1ccc(Nc2c(C#N)cnc3cc(/C=C/CO)ccc23)cc1Cl | 220 to 240 °C
O=C1CCC(N2C(=O)c3cccc(OCc4ccc(Cl)c(Cl)c4)c3C2=O)C(=O)N1 (configuration not stated) | 245 to 247 °C
CCC(CC)c1nn(-c2ccc(C(F)(F)F)nn2)cc1CCCOc1c(C)cccc1CC(=O)O | 76 to 77 °C
CCOC(=O)/C(N)=C/C(=O)/C=C/c1ccc(Cl)cc1 | 105 to 107 °C
COC(=O)C1CC(C#N)(c2ccc(OC)c(OC)c2)CCC1=O (configuration not stated) | 102 to 108 °C
Cc1cc(Nc2ccnc(Nc3ccc(S(=O)(=O)N(Cc4ccco4)C4CCN(C)CC4)cc3)n2)ccc1F | 184 °C
COc1cc(C)cc(OC)c1N(CC1CCCCC1)C(=O)CNC(=O)c1cc2ccccc2n1CCC(=O)NC1C2CC3CC(C2)CC1C3 (configuration not stated) | 96 °C
O=C1CCC(N2Cc3c(OCc4ccc(CNCCO)cc4)cccc3C2=O)C(=O)N1 (configuration not stated) | 251 to 253 °C
CN1CCN(c2c(Br)cc3c4c(cccc24)C(=O)N(O)C3=O)CC1 | 184 to 186 °C
COc1ccc(OC)c(P(=O)(C(=O)c2c(C)cc(C)cc2C)C(=O)c2c(C)cc(C)cc2C)c1 | 161 °C
COc1c(F)cc(Br)c(C(=O)O)c1F | 92 to 94 °C

SMILES | melting point
CC(C)(CO)COc1ccc(-c2c(C(N)=O)oc3ccccc23)cc1C#N | 199 to 201 °C
C[Si]1(C)CCCCCCCCCC[Si](C)(C)O[Si](C)(C)CCCCCCCCCC[Si](C)(C)O1 | 90 °C
CNCC1=NN=C(c2ccc([N+](=O)[O-])cc2)c2cc3c(cc2C1)OCO3 | 110 to 112 °C
CCOC(=O)c1cnc2nc(C(F)(F)F)ccc2c1O | > 250 °C
CC(=O)OCc1c(Br)cnc2c(NC(=O)c3c(Cl)cccc3Cl)cccc12 | 201 to 202 °C
CC(=O)OCOC(=O)COC(=C1C(=O)N(C(N)=O)c2cc(Cl)c(F)cc21)c1cccs1 | 176 to 177 °C
COc1cc2c(cc1OC)S(=O)(=O)CCC(C(=O)N1CCN(C(=O)c3cc(OC)c(OC)c(OC)c3)CC1)=C2 | 226 to 229 °C
CC(C)(C)OC(=O)Cn1ncc2c1CCN(C(=O)OC(C)(C)C)C2 | 126 to 127 °C
CCCCOCCOc1ccc(-c2ccc3c(c2)C=C(C(=O)Nc2ccc(CN(C)C4CCOCC4)cc2)CCS3(=O)=O)cc1 | 194 to 196 °C
Nc1ccc2c(c1)S(=O)(=O)N=C2NCCCOc1cccc(CN2CCCCC2)c1 | 191 to 193 °C
CCOC(=O)c1[nH]c2ccccc2c1CN(Cc1cc(C(F)(F)F)cc(C(F)(F)F)c1)c1nnn(C)n1 | 83 °C
Cn1ccc(=O)c(O)c1Cc1cccnc1 | 209 to 212 °C
COc1ccc(CN2CCc3cc(O)ccc3C2)cc1 | 158 to 160 °C
Cc1ccc2[nH]c(=O)n(CCCN3CCN(C(c4ccccc4)c4ccccc4)CC3)c2c1 | 196 °C
O=[N+]([O-])C=C1NCCN1Cc1ccc(Cl)nc1 | 160 to 161 °C
O=C(O)C1CCN(c2nnc(NCc3ccc4c(c3)OCO4)c3ccncc23)CC1 | 138 to 140 °C
Cc1nn(-c2cncnc2)cc1N | 211 to 215 °C
COC=C(C(=O)OC)c1ccccc1CC(=O)c1ccccc1Cl | 70 to 75 °C
C#CCN1C=CC(c2c(O)cc(C(C)C(C)CCCCC)cc2OC)CC1 (configuration not stated) | 113 to 115 °C
O=C(O)c1c2c(nc3ccc(F)cc13)-c1cc(F)c(-c3ccc(F)cc3)cc1CCC2 | > 300 °C
COC(=O)c1cccc(-c2ccccc2)c1S(C)(=O)=O | 101 to 115 °C
Nc1c(-c2ccc(Oc3ccccc3)cc2)nc2ccc(C(F)(F)F)cc2c1C(=O)O | 220 to 225 °C
O=C1COCC2=C1C(c1ccc(F)c(Br)c1)C1=C(CNC1=O)N2 (configuration not stated) | > 260 °C
COc1nc(NCCc2ccc(F)cc2)nc(-c2ccc(OC)c(S(=O)(=O)NC3CC3)c2)n1 | 200 to 201 °C
Cc1cc(-c2cc(CO)c(=O)n(CC(C)C)n2)ccc1F | 107 to 110 °C

SMILES | melting point
C=CCOC(=O)c1ccc(N=C(NC)c2ccc(OC)c(C34CC5CC(CC(C5)C3)C4)c2)cc1 | 77 to 79 °C
Cc1nsc(-c2ccc(N3CCN(c4cccc(C(F)(F)F)c4)CC3)nn2)n1 | 173 °C
CCOC(=O)c1cnoc1-c1cccc(Cl)c1 | 75 to 77 °C
Cc1cc(C(F)(F)F)nn1CC(=O)N1CCC(c2nc(C3=NOC(c4ccccc4Cl)C3)cs2)CC1 (configuration not stated) | 115 to 122 °C
Nc1ccccc1-n1sc(-c2ccccc2)cc1=O | 145 to 146 °C
CC1(C)CCCC(=O)N1 | 128 to 131 °C
C1=C(c2c[nH]c3ccccc23)CCN(CC2COc3ccc4c(c3O2)CCCO4)C1 (configuration not stated) | 186 to 187 °C
Cc1ccc2c(c1)c(-c1ccc(F)cc1)c(C)n2C1CCN(C)CC1 | 110 to 112 °C
COc1cc(OC)c(C2CCN(C)CC2O)c(O)c1C(C)=O (configuration not stated) | 216 °C
OC(COc1ccc(-c2ccccc2Br)cc1)CN1CCCC1 (configuration not stated) | 70 to 72 °C
CN(C)CCOc1cc(-c2ccccc2)on1 | 28 to 29 °C
NC(=S)Nc1cc(-c2ccccc2)nn1-c1ccccc1 | 198 to 201 °C
CN(C)c1ccc(C=O)c(OCC#N)c1 | 124 to 125 °C
CCOC(=O)N1CCC(N2CCN(CC(=O)Nc3c(C)cccc3C)CC2)CC1Cc1ccc(Cl)c(Cl)c1 (configuration not stated) | 101 °C
CCC(O)(CC)c1ccc(-c2cc(-c3c[nH]nc3-c3cccc(C)n3)ccc2F)nc1 | 94 to 95 °C
COc1cc2c(cc1Nc1ncc(Cl)c(Nc3ccccc3S(=O)(=O)N(C)C)n1)CCN(CC(=O)N1CCCC1)CC2 | 75 to 93 °C
CC(=NOCCCOc1ccc(CC(=O)O)cc1)c1ccc(C(C)(C)C)cc1 | 98.7 to 99.7 °C
Cc1cc2nncc(O)c2cc1C | > 260 °C
COc1ccc2c(c1)c(CC(=O)OCC(=O)N(C)CCO[N+](=O)[O-])c(C)n2C(=O)c1ccc(Cl)cc1 | 118 to 122 °C
CC(C)n1nc(-c2c(-c3ccccc3)nn3ccc(N4CCN(Cc5ccccc5)CC4)cc23)ccc1=O | 136 to 138 °C
O=C(CC12CC3CC(CC(C3)C1)C2)Nc1cccc2nc(CCCNCCCO)ccc12 | 130 to 135 °C
C=CCOc1ccnc2c([N+](=O)[O-])cccc12 | 127 °C
CC(=O)OCC(=O)c1cc2c(s1)SCCc1cc(=O)n(-c3ccc(Cl)cc3)nc1-2 | 172 to 174 °C
COn1c(Br)c(Br)c(C#N)c1-c1ccc(Cl)cc1 | 190 °C
O=c1[nH]cc(Oc2ccccc2)cc1-c1csc(-c2ccncc2)n1 | 243 to 245 °C

SMILES | melting point
COC(=O)C1C=CCN2C(=O)C(C)(CCOS(C)(=O)=O)C(=O)N12 (configuration not stated) | 104 to 105 °C
CCOC(=O)C1=C(N2CCCC2)N=C(C)C(C(=O)OCC)C1c1ccccc1C#N (configuration not stated) | 115 °C
NC(=O)c1cnn2c1NCC=C2c1ccccc1 | 149 to 152 °C
CCC1N=C(c2ccccc2F)c2c(ccc(N=C=O)c2Cl)N(C)C1=O (configuration not stated) | 243 to 244 °C
CNC(=O)CCCC1CCN(Cc2cnc3cc(NC(=O)c4ccc(-c5ccc(F)cc5)cc4)c(C)cc3c2)CC1 | 223 °C
CCOC(=O)/C=C/c1cn(Cc2ccc(OCc3nc(-c4ccccc4)oc3C)cc2)nc1OCc1ccc(OCc2nc(-c3ccccc3)oc2C)cc1 | 148 to 149 °C
Cc1cc(F)ccc1-c1nc(NCC(F)(F)F)nc2c1ccc(=O)n2-c1ccccc1F | 187 to 188 °C
Cc1cc2c(cc1Sc1ccc(C(=O)O)c(O)c1)C(C)(C)CCC2(C)C | 74 to 75 °C
CCOC(=O)c1cnn(-c2c(F)c(F)c(C(F)(F)F)c(F)c2F)c1N | 166 to 168 °C
COc1cc(OC)c2c(=O)cc(-c3ccc(OC)c(I)c3)oc2c1 | 209 to 210 °C
CCCCCCCCCCCCCCCCOc1cc(NS(=O)(=O)c2cc(N)ccc2OCCOC)c(O)cc1C | 142 to 144 °C
CC(C)=CCc1cc(C2CC(=O)c3ccc(O)cc3O2)ccc1O (configuration not stated) | 76 to 78 °C
CCCc1cc(=O)[nH]c2cc(OC)cc(OC)c12 | 193 to 196 °C
CN(Cc1ccccc1)Cc1c(-c2ccc(NC(=O)NCCO)cc2)sc2c1c(=O)n(-c1ccccc1)c(=O)n2Cc1c(F)cccc1F | 220 to 222 °C
CNc1nc(NC)nc(-c2ccc(-c3ccccc3)cc2)n1 | 198 to 200 °C
O=[N+]([O-])c1cc(C(F)(F)F)ccc1Sc1nc(-c2ccc(Cl)cc2)c(-c2ccc(Cl)cc2)[nH]1 | 264 to 266 °C
CN(C1c2cc(OCc3ccccc3)ccc2OC(C)(C)C1O)S(C)(=O)=O (configuration not stated) | 162 to 164 °C
COc1ccc(-n2cnc(OC(C)C(=O)O)n2)cc1 (configuration not stated) | 155 to 157 °C
O=C(O)COc1cc(F)c(F)cc1C(=O)NCc1ccc(Br)cc1F | 156 to 158 °C
Cc1ccc(-c2nn3cccnc3c2CC(N)=O)cc1 | 225 to 226 °C
COc1ccc(Cl)c(C(N)=O)c1F | 154 to 156 °C
Cc1sc(C(N)=O)c2c1-c1nn(C)cc1CC2 | 276 to 277 °C
